{
  "source": "patent US12558345B2",
  "about": "“CHK1/2 inhibitors for use in the treatment of neuroblastomas and/or soft tissue sarcomas” (Eli Lilly and Company, priority 2015, dated 2026)",
  "key": {"[1]": {"tested_on": "G2M DNA damage checkpoint (pHH3) in HeLa cells", "assay": "Doxorubicin-Induced G2M Checkpoint Abrogation HeLa Cell-Based Acumen Assay", "settings": "Homo sapiens, 125 nM doxorubicin 24 hours, compound seven hours, Relative EC50", "method": "An inhibitor of CHK1 will disable the G2M DNA damage checkpoint in p53-minus tumor cells treated with the topoisomerase II inhibitor, doxorubicin. A measurement of G2M checkpoint abrogation is the phosphorylation of histone H3 on serine 10 that occurs after cells traverse the G2M checkpoint and enter mitosis. The following high content imaging assay can be used to measure the phosphorylation of histone H3 in cells. HeLa cells (purchased from ATCC) are cultured in MEM Media (Gibco™) supplemented with 10% (v/v) FBS and plated at 2000 cells per well in poly D-lysine coated clear bottom black plates (BD Biocoat Cat #3504640), 100 μL volume per well. Plates are then incubated in a cell culture incubator for 18-24 hours (37° C., 5% CO2 and 95% relative humidity). […] Plates are scanned with ACUMEN EXPLORER™ Laser-scanning fluorescence microplate cytometers using 488 nm excitation (TTP LABTECH LTC) to measure pHH3 and DNA content including 2 N, and 4 N. The pHH3 positive cells are identified by mean intensity at 519 nm from Alexa 488. […] The final readout for each population is determined by normalizing to the % of total cells producing a final assay output of % pHH3, %2 N and %4 N. 100% activity is then determined by treating cells with the maximum concentration of an inhibitor control compound at 100 nM to determine the final % activity of each compound. […]"}, "[2]": {"tested_on": "CTG-0243 OS patient-derived xenograft", "assay": "Xenograft Tumor Model CTG-0243", "type": "in vivo, mouse", "settings": "comparator day 22, p-value 0.089", "method": "The efficacy of 5-(5-(2-(3-aminopropoxy)-6-methoxyphenyl)-1H-pyrazol-3-ylamino)pyrazine-2-carbonitrile methanesulfonic acid monohydrate is measurable in vivo in mouse models of neuroblastomas and human pediatric and adult sarcomas. 5-(5-(2-(3-Aminopropoxy)-6-methoxyphenyl)-1H-pyrazol-3-ylamino)pyrazine-2-carbonitrile methanesulfonic acid monohydrate (10 mg/kg) can be administered subcutaneously to nude mice bearing either cell-derived xenografts (CDX) or patient-derived xenografts (PDX) of human rhabdomyosarcoma, desmoplastic small round cell tumor (DSRCT), osteosarcoma, and Ewing's sarcoma using a 3 day on, 4 day off b.i.d. dosing schedule. Tumor volume and body weight can be measured two times per week. Tumor-specific parameters can be evaluated by immumohistochemistry. […]\nFor all “ST” models (encompassing RMS and LMS), patient-derived xenografts are established from viable human tumor tissue and are serially passaged in animals a limited number of times to maintain tumor heterogeneity. […] Tumor response is determined by tumor volume measurement performed twice per week during the course of treatment."}, "[3]": {"tested_on": "Leiomyosarcoma xenograft models", "assay": "Sarcoma xenograft models by tumor subtype: Leiomyosarcoma", "type": "in vivo, mouse", "description": "For all “CTG” models (encompassing human RMS, DSRCT, EWS, OS and LMS patient-derived xenograft models), female NCr nude spontaneous mutant mice (5-8 weeks old, Taconic) are implanted unilaterally in the flank region with tumor fragments harvested from donor animals, each implanted from a specific passage lot.\nFor all “ST” models (encompassing RMS and LMS), patient-derived xenografts are established from viable human tumor tissue and are serially passaged in animals a limited number of times to maintain tumor heterogeneity. In subcutaneous models, athymic nude mice (Crl:NU(NCr)-Foxn1nu) or CB-17 SCID mice (CRL-CB17/Icr-Prkdcscid/IcrIcoCrl) are injected or implanted unilaterally into the flank with tumor fragments harvested from host animals, each implanted from a specific passage lot. For all studies, measure tumor growth and body weight twice per week beginning on the seventh day after implantation. When tumor size reaches 150-300 mm^3, randomize animals and group into groups of 4-7 animals. Prepare test compound in an appropriate vehicle (e.g. vehicle can be 20% Captisol® in sterile water) and administer subcutaneously for three consecutive days followed by a four day dosing holiday and repeat for a minimum of four weeks. Tumor response is determined by tumor volume measurement performed twice per week during the course of treatment."}, "[4]": {"settings": "Leiomyosarcoma, age of patients 48-64 years"}},
  "note": "Counter-ions that a name gives are not always drawn.",
  "data": [
    {"molecule": "COc1cccc(OCCCN)c1-c1cc(Nc2cnc(C#N)cn2)n[nH]1", "note": "[Example 2, 5-(5-(2-(3-Aminopropoxy)-6-methoxyphenyl)-1H-pyrazol-3-ylamino)pyrazine-2-carbonitrile dihydrogen chloride salt]", "values": [
      {"measurement": "EC50", "setting": "[1]", "result": 10.5, "unit": "nM"}
    ]},
    {"molecule": "COc1cccc(OCCCN)c1-c1cc(Nc2cnc(C#N)cn2)n[nH]1", "note": "[Example 5, 5-(5-(2-(3-Aminopropoxy)-6-methoxyphenyl)-1H-pyrazol-3-ylamino)pyrazine-2-carbonitrile methanesulfonic acid monohydrate]", "values": [
      {"measurement": "% T/C", "setting": "[2]", "result": 43, "unit": "%"},
      {"measurement": "Result of Treatment: Partial Response (models)", "setting": "[3]; [4]", "result": "1/5 Partial"},
      {"measurement": "Result of Treatment: Stable Disease (models)", "setting": "[3]; [4]", "result": "Response; 1/5"},
      {"measurement": "activity in PDX models", "setting": "[3]; PDX models of leiomyosarcoma", "result": "active"}
    ]}
  ]
}
